What was measured:
Format in all cases: functional
[1] = organism: Rattus norvegicus; assay: In vitro inhibitory effect on D-Galactosamine induced cytotoxicity in primary cultured rat hepatocytes at 0.3 ug/mL; conditions: Hepatocyte
[2] = organism: Rattus norvegicus; assay: In vitro inhibitory effect on D-Galactosamine induced cytotoxicity in primary cultured rat hepatocytes at 1 ug/mL; conditions: Hepatocyte
[3] = organism: Rattus norvegicus; assay: In vitro inhibitory effect on D-Galactosamine induced cytotoxicity in primary cultured rat hepatocytes at 10 ug/mL; conditions: Hepatocyte
[4] = test system: Mus musculus; assay: Inhibitory effect on D-GalN/LPS (injected i.p. dose of 350 mg/kg and 10 ug/kg) induced hepatic injury in mice at 10 mg/kg, ip
[5] = organism: Rattus norvegicus; assay: In vitro inhibitory effect on D-Galactosamine induced cytotoxicity in primary cultured rat hepatocytes at 30 ug/mL; conditions: Hepatocyte
[6] = organism: Rattus norvegicus; assay: In vitro inhibitory effect on D-Galactosamine induced cytotoxicity in primary cultured rat hepatocytes at 3 ug/mL; conditions: Hepatocyte

SMILES | inhibition at 0.3 µg/mL [1] | inhibition at 1 µg/mL [2] | inhibition at 10 µg/mL [3] | s-GOT level [4] | s-GPT level [4] | inhibition at 30 µg/mL [5] | inhibition at 3 µg/mL [6]
C[C@H]1O[C@@H](O[C@H]2CC[C@@]3(C)C(CC[C@]4(C)C3[C@H](O)CC3C5=CC(C)(C)CC[C@]5(CO)[C@@H](O)C[C@]34C)[C@]2(C)CO)[C@H](O)[C@@H](O[C@@H]2O[C@H](CO)[C@@H](O)[C@H](O)[C@H]2O)[C@H]1O (some centres undefined) | 15.8% | 39.7% | 69.5% | 1209 Karmen units | 1265 Karmen units | 64.7% | 59.4%
C[C@H]1O[C@@H](O[C@H]2CC[C@@]3(C)C(CC[C@]4(C)C3[C@H](O)C=C3C5CC(C)(C)CC[C@]5(CO)[C@@H](O)C[C@]34C)[C@]2(C)CO)[C@H](O)[C@@H](O[C@@H]2O[C@H](CO)[C@@H](O)[C@H](O)[C@H]2O)[C@H]1O (some centres undefined) | 6.8% | 16.7% | 43.1% | 1261 Karmen units | 1483 Karmen units | 46.5% | 35.6%
C[C@@H]1O[C@@H](O[C@@H]2[C@H](O)[C@@H](O)[C@H](O[C@H]3CC[C@@]4(C)C(CC[C@]5(C)C4C(=O)C=C4C6CC(C)(C)CC[C@]6(CO)[C@@H](O)C[C@]45C)C3(C)C)O[C@@H]2CO[C@@H]2O[C@H](CO)[C@@H](O)[C@H](O)[C@H]2O)[C@H](O)[C@H](O)[C@H]1O (some centres undefined) [BUPLEUROSIDE VII] | -0.6% | 2.5% | 2.2% |  |  | 3.2% | 4.3%
C[C@H]1O[C@@H](OC2CC[C@@]3(C)C(CC[C@]4(C)C3C=CC3=C5C[C@](C)(C(=O)O)CC[C@]5(CO)[C@H](O)C[C@]34C)[C@]2(C)CO)[C@H](O)[C@@H](O[C@@H]2O[C@H](CO)[C@@H](O)[C@H](O)[C@H]2O)[C@H]1O (some centres undefined) [BUPLEUROSIDE V] | 1.4% | 1.5% | 3.8% |  |  | 4.5% | 1.4%
C[C@@H]1O[C@@H](O[C@H]2[C@@H](O)[C@@H](CO[C@@H]3O[C@H](CO)[C@@H](O)[C@H](O)[C@H]3O)O[C@@H](OC3CC[C@@]4(C)C(CC[C@]5(C)C4C=CC4=C6C[C@@](C)(CO)CC[C@]6(CO)[C@H](O)C[C@]45C)[C@]3(C)CO)[C@@H]2O)[C@H](O)[C@H](O)[C@H]1O (some centres undefined) [BUPLEUROSIDE XII] | 0.1% | 0.3% | 2% |  |  | 0.8% | -0.8%
C[C@@H]1O[C@@H](O[C@@H]2[C@H](O)[C@@H](O)[C@H](O[C@H]3CC[C@@]4(C)C(CC[C@]5(C)C4CC=C4C6CC(C)(C)CC[C@]6(CO)CC[C@]45C)C3(C)C)O[C@@H]2CO[C@@H]2O[C@H](CO)[C@@H](O)[C@H](O)[C@H]2O)[C@H](O)[C@H](O)[C@H]1O (some centres undefined) [BUPLEUROSIDE XI] | -0.4% | 1.6% | 0.3% |  |  | -0.3% | -1%
C[C@@H]1O[C@@H](O[C@H]2[C@@H](O)[C@@H](CO[C@@H]3O[C@H](CO)[C@@H](O)[C@H](O)[C@H]3O)O[C@@H](OC3CC[C@@]4(C)C(CC[C@]5(C)C4C=CC4=C6CC(C)(C)CC[C@]6(CO)[C@H](O)C[C@]45C)[C@]3(C)CO)[C@@H]2O)[C@H](O)[C@H](O)[C@H]1O (some centres undefined) [BUPLEUROSIDE X] | 2.9% | 3.9% | 3.4% |  |  | 2.7% | 4.6%
C[C@@H]1O[C@@H](O[C@@H]2[C@H](O)[C@@H](O)[C@H](O[C@H]3CC[C@@]4(C)C(CC[C@]5(C)C4C=C[C@]46OC[C@@]7(CCC(C)(C)CC74)[C@@H](O)C[C@]65C)C3(C)C)O[C@@H]2CO[C@@H]2O[C@H](CO)[C@@H](O)[C@H](O)[C@H]2O)[C@H](O)[C@H](O)[C@H]1O (some centres undefined) [SAIKOSAPONIN C] | -1.5% | -0.7% | -1% |  |  | -1% | -1.9%
